EP2228050A1, “Use of gamma-aminobutyric acid as a depigmenting agent” (priority 2009, dated 2010)
Values joined by “and” are separate entries in the source; they are usually repeats but may differ in a detail not shown here. Identical values can stand only once. Like-named read-outs stand apart in the source and are kept apart here.

Assays:
[1] = tested on: mélanocytes humains normaux; assay: Cytotoxicity: viability of melanocytes by spectrophotometric assay of intracellular phosphatase activity (p-nitrophenyl phosphate, 405 nm)
Method: On effectue la détermination sur des mélanocytes humains normaux obtenus à partir d'un sujet jeune (4 ans). Pour les réalisations des essais, les cellules ont été cultivées jusqu'à l'obtention de mono couches confluentes.
Les cellules ont mises en incubation pendant 72 heures en l'absence (essai témoin) ou en présence de concentrations croissantes de composé E ou de chacun des produits essayés. Pour le composé E, on a essayé des concentrations de 0.003; 0.03; 0.075; 0.15; 0.5; 0.75; 1.5 et 3% (v/v) et pour le produit selon l'invention : 0.01; 0.1; 0.25; 0.5; 1; 2.5; 5; 10% (v/v).
A titre de comparaison, on a préparé une solution à 10% d'acide kojique et une solution d'acide lactique à 30% (composition E).
Les préparations essayées ont été ensuite diluées directement dans le milieu d'incubation des mélanocytes.
A la fin de la période d'incubation, la viabilité des cellules a été évaluée par une méthode spectrophotométrique de dosage de l'activité des phosphatases intracellulaires.
Selon la méthode de Yan T. et al. (Anal. Biochem. 24 (1996) 103-108), on dose le p-nitrophénol résultant de la transformation du phosphate de p-nitrophényle par les phosphatases intra-cellulaires des cellules viables.
L'absorbance du p-nitrophénol libéré à 405 nm est directement proportionnelle au nombre des cellules viables présentes dans le puits de culture.

[2] = tested on: mélanocytes humains normaux; assay: Melano-modulating effect: intracellular melanin / protein ratio in monolayer melanocytes (step 1 single actives, step 2 complex); assay type: cell-based; conditions: 72 h
Method: Ces essais ont été menés sur un modèle de mélanocytes humains normaux cultivés en mono couche.
Les mélanocytes humains normaux ont été mis en incubation pendant 72 heures en l'absence (témoin) ou en présence d'un produit de référence (acide kojique 250 µM)) ou de concentrations croissantes des produits actifs essayés.
Dans cette méthode, on dose le rapport mélanine/protéines en pourcentage du témoin. On a déterminé également les valeurs obtenues avec le solvant seul et une solution d'acide kojique à 250 µM dans ce solvant(DMSO) pris comme substance de référence.
Tableau II Véhicule (DMSO) et produit de référence
On a utilisé des mélanocytes humains normaux issus d'un sujet jeune âgé de 4 ans. On les a cultivé en monocouche jusqu'à confluence de 80%.
On a employé comme inhibiteur de tyrosinase de référence, l'acide kojique à 250 µM.
Les mélanocytes ont été mis en incubation pendant 72 heures à 37°C sous atmosphère humide et sous 5% de CO2 en l'absence (témoin) ou en présence d'acide kojique ou de concentrations croissantes de principes actifs à l'essai (0.1; 0.5 1%)
A la fin de la période d'incubation, le contenu intracellulaire en mélanine a été quantifié après lyse cellulaire par mesure spectrophotométrique à 405nm.
A la fin de la période d'incubation, les protéines contenues dans les lysats cellulaires ont été dosés par une méthode spectrocolorimétrique faisant appel au bleu de Coomassie (selon la méthode de Bradford M. Anal. Biochem. 72 (1976) 248-254).
Les résultats sont donnés sous forme de pourcentage de mélanine par rapport aux témoins (moyenne + ou- déviation standard SD) calculés à partir de valeurs obtenues en µg de mélanine intracellulaire par mg de protéines totales du tapis cellulaire.
On a déterminé la significativité statistique des différences constatées entre les conditions des « témoin » et « Produits à l'essai » selon une analyse de variance à un seul facteur (ANOVA) suivi d'un test de Holm-Sidak (* = […] < 0,05)

NCCCC(=O)O [A, acide gamma-aminobutyrique]
dose à partir de laquelle un effet cytotoxique est détectable ([1]; human, 4320 min): 0.5%

O=c1cc(CO)occ1O [Acide Kojique, acide kojique]
activity at 250 µM ([2]; Melanocyte, step 1, Acide Kojique 250 µM in DMSO, mean, * p<0,05, read-out: mélanine / protéines (% du témoin) Moyenne): 77.4%
activity at 250 µM ([2]; Melanocyte, step 2, Acide kojique 250 µM, mean (controls mean 119,2), * p<0,05, read-out: Mélanines/ protéines (% du témoin) Moyenne): 101%
activity at 250 µM ([2]; Melanocyte, step 2, Acide kojique 250 µM, mean normalised to controls = 100, read-out: % témoin): 84.5%
activity at 250 µM ([2]; Melanocyte, step 2, Acide kojique 250 µM, single replicate (controls mean 119,2), read-out: Mélanines/ protéines (% du témoin)): 106%
inhibition at 250 µM ([2]; Melanocyte, step 2, acide kojique 250 µM, p < 0.05, read-out: réduction du contenu intracellulaire en mélanine): 15.5%
Mélanines/ protéines (% du témoin) ([2]; step 2, Acide kojique 250 µM, single replicate (controls mean 119,2), 4320 min, 250 µM): 93,2 % du témoin and 102,8 % du témoin and 94,1 % du témoin and 97,9 % du témoin

CC(O)C(=O)O (centres unmarked) [Actif E, acide lactique]
dose à partir de laquelle un effet cytotoxique est détectable ([1]; 72 h, detectable = less than 80 % viable cells): 0.03%
